The record followed here is PubChem BioAssay AID1549 (Sanford-Burnham Center for Chemical Genomics, 2009).

Activity calls are given as the source filed them. How the calls were made is not given here. Some results are limits rather than exact numbers.

In the experiment the target is Influenza A virus M2 proton channel (A/TW/4845/1999 H1N1). Nature of the experiment: NMR binding screen, influenza A virus M2 proton channel, Kd (AID 1549). Particulars: M2 protein.
On to `Cc1ccc(C(=O)CS(C)(=O)=O)cc1`, for which the Kd was > 4 mM (inactive).

With `CC(C)(C)C(=O)N1CCCC1C(=O)O` (centres undefined), the Kd is > 4 mM (inactive).

Consider `c1cc2n(c1)CCNC2c1ccncc1` (centres undefined), for which the Kd was > 4 mM (inactive). With `COc1cccc(NC(=O)c2ocnc2C)c1` the figure was > 4 mM (inactive). The value for `Nc1ccnc(C(=O)O)c1` was > 4 mM (inactive); that for `Cn1cnnc1SCC(=O)Nc1ccccc1` was > 4 mM (inactive); that for `N=C1/C(=C\c2ccco2)C(=O)N=C2SC=NN12` was > 4 mM (inactive). The value for `CC(=O)CC(=O)N1C(O)CC[N+]1(C)C` (centres undefined) was > 4 mM (inactive); that for `COc1ccc2[nH]cc(CCNC(C)=O)c2c1` was > 4 mM (inactive); that for `O=C1CSC(=Nc2cccc(C(F)(F)F)c2)N1` was > 4 mM (inactive).

On to `Cc1c(C(=O)N2CCOCC2)oc2c1C(=O)CC(C)(C)C2`, for which the Kd is > 4 mM (inactive). The value for `CN1CCN(c2nc3c(c(=O)[nH]2)CCCC3)CC1` was > 4 mM (inactive); that for `NC(N)=NCCCCN=C(N)N` was > 4 mM (inactive); that for `Nc1nc(SCC(=O)c2ccc([N+](=O)[O-])cc2)n[nH]1` was > 4 mM (inactive). Take `Oc1cc(O)c2c(c1)O[C@H](c1ccc(O)c(O)c1)[C@@H](O)C2`: the Kd was > 4 mM (inactive).

Regarding `O=c1c(O)c(-c2ccccc2)oc2ccc3occc3c12`, the Kd is > 4 mM (inactive). With `COc1cc2nc(-c3cccs3)oc(=O)c2cc1OC` the figure was > 4 mM (inactive); with `O=C(O)c1ccc2nsnc2c1`, > 4 mM (inactive); with `CCNC(=S)N1CCC(C(N)=O)CC1`, > 4 mM (inactive). `CCc1c(C)[nH]c(=S)c(C(N)=O)c1C`: the Kd is > 4 mM (inactive).

On to `Cn1nnc2cc(C(=O)NC3CCCCC3)ccc21`, for which the Kd is > 4 mM (inactive). With `O=C(c1cc2ccccc2o1)c1nc2c(n1O)CCCCC2`, the Kd was > 4 mM (inactive). For `NC(=O)CSc1nc2ccccc2o1`, the Kd is > 4 mM (inactive). With `O=C(c1ccco1)N1C(=O)c2cccc3cccc1c23` the figure was > 4 mM (inactive); with `O=C(Nc1ccc(N2CCCC2=O)cc1)c1cccc(F)c1`, > 4 mM (inactive).

Take `O=C(O)CSCc1c(F)cccc1Cl`: the Kd was > 4 mM (inactive). As to `Cc1n[nH]c(C)c1NC(=O)c1cccc(F)c1`, the Kd was > 4 mM (inactive). The value for `CC(=O)O[C@@H]1CC2C(C)(C)[C@@H](O)CC[C@]2(C)C2CC[C@@]3(C)[C@H](c4ccoc4)OC(=O)[C@H]4O[C@]43[C@@]21C` (some centres undefined) was > 4 mM (inactive); that for `COC(=O)c1cn(C(=O)OC)c2ccccc12` was > 4 mM (inactive); that for `COc1cc2c(cc1OC)[C@@H]1C(=O)c3ccc4c(c3O[C@@H]1CO2)CC(C(C)C)O4` (some centres undefined) was > 4 mM (inactive).

Consider `CCc1ccccc1OCc1nnc(N)s1`, for which the Kd was > 4 mM (inactive).

For `CC(=O)NC(NC(C)=O)c1ccccc1`, the Kd is > 4 mM (inactive). For `C[C@H]1CCCC(=O)CCC/C=C/c2cc(O)cc(O)c2C(=O)O1`, the Kd was > 4 mM (inactive).

Turning to `O=C1CC(C(=O)O)c2ccccc21` (centres undefined), the Kd is > 4 mM (inactive). As to `CC12CCC3C(CC3(C)C)C(C)(CCC1=O)O2` (centres undefined), the Kd was > 4 mM (inactive). As to `O=C1CNC(=O)N1Cc1ccc(Br)cc1`, the Kd is > 4 mM (inactive). As to `Cc1ccc(N2NC(=O)CC2=O)cc1C`, the Kd was > 4 mM (inactive). Consider `O=C(c1ccc(F)cc1)C1CCNCC1`, for which the Kd was > 4 mM (inactive). The value for `Cc1csc2nc(=O)c3ccccc3n12` was > 4 mM (inactive); that for `O=C(c1ccccc1F)N1CCN(c2ccccc2)CC1` was > 4 mM (inactive); that for `CCNC(=S)NS(=O)(=O)c1ccccc1` was > 4 mM (inactive). With `COc1cc(-c2coc3cc(OCc4ccccc4)c(OC)c(O)c3c2=O)cc(O)c1OC` the figure was > 4 mM (inactive); with `CC(=O)Nc1c(Cl)cnn(-c2ccccc2)c1=O`, > 4 mM (inactive); with `CN1CCCCC1c1ccc(-c2cccnc2)nc1` (centres undefined), > 4 mM (inactive). For `NC(=O)CSc1ccc(-c2ccco2)nn1`, the Kd was > 4 mM (inactive). The value for `Cc1cc2c(nn1)CCc1nonc1-2` was > 4 mM (inactive); that for `NC(=O)c1ccc(C(N)=O)cc1` was > 4 mM (inactive). As for `NCc1ccc2c(c1)CCO2`, the Kd was > 4 mM (inactive).

On to `NS(=O)(=O)c1ccc(N=Cc2ccc[nH]2)cc1`, for which the Kd was > 4 mM (inactive). Consider `c1ccc2c(c1)nnn2C1CCNCC1`, for which the Kd is > 4 mM (inactive).

As for `COCC(=O)NC1CC(C)(C)NC(C)(C)C1`, the Kd is > 4 mM (inactive). Turning to `CNC(=O)c1cccc(NC(=S)NC)c1`, the Kd is > 4 mM (inactive).

As for `O=C1C=CC2=C3c4cc(O)c(O)cc4CC3(O)COC2=C1O` (centres undefined), the Kd was > 4 mM (inactive). In the case of `Cc1ccc(-n2[nH]c(C)cc2=O)cc1`, the Kd is > 4 mM (inactive).

Regarding `NCCc1ccc(S(N)(=O)=O)cc1`, the Kd is > 4 mM (inactive). Turning to `O=C(Nc1ccon1)c1ccccc1Cl`, the Kd was > 4 mM (inactive). The value for `Cn1ncc(NC(=O)Nc2ccc(F)cc2F)c1C(N)=O` was > 4 mM (inactive); that for `O=C(c1ccc(N2CCNCC2)cc1)c1cccnc1` was > 4 mM (inactive).

In the case of `CCSc1nc(C)c(CC)c(C)c1C(N)=O`, the Kd is > 4 mM (inactive).

On to `NS(=O)(=O)c1ccc(NC(=S)NC2CC2)cc1`, for which the Kd is > 4 mM (inactive). For `NC(=O)CNC(=O)c1ccccc1`, the Kd was > 4 mM (inactive).

On to `COc1ccc(C(C)=O)c(O)c1`, for which the Kd is > 4 mM (inactive). For `Cc1ccc(NC(=O)CN2C(=O)CSC2=O)cc1`, the Kd is > 4 mM (inactive). The value for `CC(=O)N1CCN(C2CCSC2)CC1` (centres undefined) was > 4 mM (inactive).

Turning to `Nc1ccc(NS(=O)(=O)c2ccc(N)cc2)cc1`, the Kd was > 4 mM (inactive). Consider `NC(=O)CCS(=O)(=O)CCN1CCOCC1`, for which the Kd is > 4 mM (inactive). The value for `CC1=CC(=O)CC(C)(C)C1(O)/C=C/C(C)=C\C(=O)O` (centres undefined) was > 4 mM (inactive). Consider `CNC(=O)c1cc(C)c(-c2ccccc2)s1`, for which the Kd was > 4 mM (inactive). With `COc1ccccc1C(=O)NC1CCN(C)CC1` the figure was > 4 mM (inactive); with `CC1SC(=NC(=O)c2ccco2)NC1=O` (centres undefined), > 4 mM (inactive).

In the case of `O=C1CCCC(=O)N1Cc1ccco1`, the Kd is > 4 mM (inactive). With `O=C(O)C(CO)c1ccccc1` (centres undefined) the figure was > 4 mM (inactive); with `Cc1sc(N)c(C(N)=O)c1C`, > 4 mM (inactive). With `COCC(=O)OCn1nnc2ccccc2c1=O` the figure was > 4 mM (inactive); with `Cc1cc(=O)[nH]c2ccccc12`, > 4 mM (inactive).

In the case of `CCCn1cnn2c(=O)cc(C)nc12`, the Kd was > 4 mM (inactive). As to `COC(=O)c1ccc(N2CCCC2)nc1`, the Kd is > 4 mM (inactive). With `S=C(Nc1ccccc1)Nc1nncs1` the figure was > 4 mM (inactive); with `O=C(Nc1nccs1)c1cccnc1`, > 4 mM (inactive); with `Nc1ccc(C(=O)NCC2CCCO2)cc1` (centres undefined), > 4 mM (inactive).

Take `NCc1ccc(-n2cccc2)cc1`: the Kd is > 4 mM (inactive). On to `COc1cccc2c1CCC1=CC(=O)CC[C@@]12C`, for which the Kd was > 4 mM (inactive). With `Nc1nc(-c2ccc(O)cc2)cs1` the figure was > 4 mM (inactive).

For the compound `Nc1nc2ncc(=O)[nH]c2c(=O)[nH]1`, the Kd was > 4 mM (inactive). In the case of `CC(=O)N1CCc2ccccc2C1CC(=O)O` (centres undefined), the Kd is > 4 mM (inactive). With `CC(=O)Nc1ccc(N2C(=O)C=CC2=O)cc1C` the figure was > 4 mM (inactive); with `CC(=O)Nc1ccn(-c2ccccc2)n1`, > 4 mM (inactive); with `COC(=O)c1ccc2nsnc2c1`, > 4 mM (inactive).

For the compound `CN(C)c1n[nH]c(=O)[nH]c1=O`, the Kd is > 4 mM (inactive). Take `Cc1cc(=O)n2ccc(CN3CCOCC3)c(O)c2n1`: the Kd was > 4 mM (inactive). The value for `OCc1ccccc1CN1CCOCC1` was > 4 mM (inactive); that for `COc1ccc2c(c1OC)C(=O)O[C@@H]2[C@@H]1c2cc3c(cc2CCN1C)OCO3` was > 4 mM (inactive). The value for `Nc1ccc(-c2cnco2)cc1` was > 4 mM (inactive); that for `CN1CCN(C2CCN(Cc3ccccc3)CC2)CC1` was > 4 mM (inactive).

As for `Cc1nc2ccc(C(=O)O)cc2[nH]1`, the Kd was > 4 mM (inactive). With `COc1cc(N)ncn1` the figure was > 4 mM (inactive); with `Cc1ccc(C)n1NC(=O)c1ccco1`, > 4 mM (inactive). Turning to `O=c1nc(N2CCCCC2)nc2n1CCO2`, the Kd was > 4 mM (inactive).

For `O=S1(=O)CCC(NCCO)C1` (centres undefined), the Kd is > 4 mM (inactive). In the case of `Cc1cc(=O)oc2c1c(C)nn2CN1CCN(C)CC1`, the Kd was > 4 mM (inactive). The value for `CC(=O)Nc1ccc(Oc2nc(C)cc(C)n2)cc1` was > 4 mM (inactive); that for `O=C(NC(=S)NC1CCS(=O)(=O)C1)c1ccccc1` (centres undefined) was > 4 mM (inactive). `Cc1ccc(-n2cnnn2)c2cccnc12`: the Kd was > 4 mM (inactive). For the compound `O=C(O)c1ccccc1C(=O)Nc1ccccc1`, the Kd is > 4 mM (inactive). The value for `O=C(O)CC1NCCNC1=O` (centres undefined) was > 4 mM (inactive).

`CC(=O)c1cnc2nc(C(F)(F)F)nn2c1C`: the Kd is > 4 mM (inactive).

In the case of `CC(=O)Oc1cc(-c2coc3cc(OC(C)=O)c(OC(C)=O)c(OC(C)=O)c3c2=O)cc(OC(C)=O)c1OC(C)=O`, the Kd is > 4 mM (inactive). The value for `CC(C)NC(=O)Cc1c(O)c2ccccc2[nH]c1=O` was > 4 mM (inactive); that for `Cc1nn(C)c2sc(CO)cc12` was > 4 mM (inactive).

The term Kd denotes the equilibrium constant for the complex coming apart.
